# Test results reported in ChEMBL document CHEMBL1201862, “PubChem BioAssay data set” (2004).
#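 Exposure lasted 48 hours, with cells grown in 96-well plates and compounds tested at five concentrations. At the GI50, growth is halved.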 Calls of active or inactive are those of the source. Cut-off read from the data, not from the text of the source: active = GI50 up to about 1.1 µM and inactive = higher.
# What was measured:
# Test in all cases: growth of human tumour cells (NCI), 48 h
# [1] = system: SN12C
# [2] = system: MDA-N
# [3] = system: SF-268
# [4] = system: KM12
# [5] = system: RPMI-8226
# [6] = system: UACC-62
# [7] = system: COLO 205
# [8] = system: UACC-257
# [9] = system: SF-539
# [10] = system: OVCAR-3
# [11] = system: OVCAR-8
# [12] = system: HCT-15
# [13] = system: IGROV-1
# [14] = system: CAKI-1
# [15] = system: SNB-75
# [16] = system: HOP-62
# [17] = system: PC-3
# [18] = system: U-251
# [19] = system: OVCAR-5
# [20] = system: M14
# [21] = system: HL-60
# [22] = system: LOX IMVI
# [23] = system: MCF7
# [24] = system: K562
# [25] = system: HT-29
# [26] = system: EKVX
# [27] = system: NCI/ADR-RES
# [28] = system: SK-MEL-5
# [29] = system: HOP-92
# [30] = system: NCI-H460
# [31] = system: SW-620
# [32] = system: SK-MEL-2
# [33] = system: TK-10
# [34] = system: A498
# [35] = system: T47D
# [36] = system: SK-MEL-28
# [37] = system: HCC 2998
# [38] = system: A549
# [39] = system: ACHN
# [40] = system: Malme-3M
# [41] = system: MDA-MB-435
# [42] = system: 786-0
# [43] = system: DU-145
# [44] = system: NCI-H226
# [45] = system: NCI-H522
# [46] = system: SK-OV-3
# [47] = system: SNB-19
# [48] = system: OVCAR-4
# [49] = system: Hs-578T
# [50] = system: SR
# [51] = system: NCI-H23
# [52] = system: SF-295
# [53] = system: HCT-116
# [54] = system: UO-31
# [55] = system: MDA-MB-231
# [56] = system: CCRF-CEM
# [57] = system: MOLT-4
# [58] = system: RXF 393
compound,measurement,setting,value
NCC#CCNCCCN1CC1,GI50,[1],> 100 µM (inactive)
same,GI50,[2],> 100 µM (inactive)
same,GI50,[3],> 100 µM (inactive)
same,GI50,[4],> 100 µM (inactive)
same,GI50,[5],6.11 µM (inactive)
same,GI50,[6],> 100 µM (inactive)
same,GI50,[7],> 100 µM (inactive)
same,GI50,[8],> 100 µM (inactive)
same,GI50,[9],> 100 µM (inactive)
same,GI50,[10],> 100 µM (inactive)
same,GI50,[11],> 100 µM (inactive)
same,GI50,[12],> 100 µM
same,GI50,[13],> 100 µM (inactive)
same,GI50,[14],> 100 µM (inactive)
same,GI50,[15],< 0.01 µM (active)
same,GI50,[16],> 100 µM (inactive)
same,GI50,[17],> 100 µM (inactive)
same,GI50,[18],> 100 µM (inactive)
same,GI50,[19],> 100 µM (inactive)
same,GI50,[20],> 100 µM (inactive)
same,GI50,[21],> 100 µM (inactive)
same,GI50,[22],> 100 µM (inactive)
same,GI50,[23],> 100 µM (inactive)
same,GI50,[24],> 100 µM (inactive)
same,GI50,[25],> 100 µM (inactive)
same,GI50,[26],> 100 µM (inactive)
same,GI50,[27],> 100 µM (inactive)
same,GI50,[28],> 100 µM (inactive)
same,GI50,[29],> 100 µM (inactive)
same,GI50,[30],> 100 µM (inactive)
same,GI50,[31],> 100 µM (inactive)
same,GI50,[32],> 100 µM (inactive)
same,GI50,[33],> 100 µM (inactive)
same,GI50,[34],> 100 µM (inactive)
same,GI50,[35],> 100 µM (inactive)
same,GI50,[36],> 100 µM (inactive)
same,GI50,[37],> 100 µM (inactive)
same,GI50,[38],> 100 µM (inactive)
same,GI50,[39],> 100 µM (inactive)
same,GI50,[40],> 100 µM (inactive)
same,GI50,[41],> 100 µM (inactive)
same,GI50,[42],> 100 µM (inactive)
same,GI50,[43],> 100 µM (inactive)
same,GI50,[44],> 100 µM (inactive)
same,GI50,[45],> 100 µM (inactive)
same,GI50,[46],> 100 µM (inactive)
same,GI50,[47],> 100 µM (inactive)
same,GI50,[48],> 100 µM (inactive)
same,GI50,[49],> 100 µM (inactive)
same,GI50,[50],> 100 µM (inactive)
same,GI50,[51],> 100 µM (inactive)
same,GI50,[52],> 100 µM (inactive)
same,GI50,[53],> 100 µM (inactive)
COc1cc2c3c(c1Oc1nnnn1-c1ccccc1)-c1c(ccc4c1OCO4)C[C@H]3N(C)CC2,GI50,[1],32.4 µM (inactive)
same,GI50,[2],21.9 µM (inactive)
same,GI50,[3],48.9 µM (inactive)
same,GI50,[4],32.1 µM (inactive)
same,GI50,[5],32.5 µM (inactive)
same,GI50,[6],14.3 µM (inactive)
same,GI50,[7],32.2 µM (inactive)
same,GI50,[8],20.5 µM (inactive)
same,GI50,[9],> 100 µM (inactive)
same,GI50,[10],37.4 µM (inactive)
same,GI50,[11],47.8 µM (inactive)
same,GI50,[12],21.6 µM
same,GI50,[13],41.6 µM (inactive)
same,GI50,[15],22.6 µM (inactive)
same,GI50,[54],78.9 µM (inactive)
same,GI50,[16],60.5 µM (inactive)
same,GI50,[17],38.6 µM (inactive)
same,GI50,[18],69 µM (inactive)
same,GI50,[19],> 100 µM (inactive)
same,GI50,[20],18.7 µM (inactive)
same,GI50,[21],15.1 µM (inactive)
same,GI50,[22],29 µM (inactive)
same,GI50,[24],29.6 µM (inactive)
same,GI50,[25],18.5 µM (inactive)
same,GI50,[55],41.8 µM (inactive)
same,GI50,[26],32.4 µM (inactive)
same,GI50,[27],35.7 µM (inactive)
same,GI50,[28],29.5 µM (inactive)
same,GI50,[29],24.4 µM (inactive)
same,GI50,[30],36.9 µM (inactive)
same,GI50,[31],80.7 µM (inactive)
same,GI50,[32],71.9 µM (inactive)
same,GI50,[33],75.5 µM (inactive)
same,GI50,[56],24.5 µM (inactive)
same,GI50,[35],33.7 µM (inactive)
same,GI50,[36],17.8 µM (inactive)
same,GI50,[37],20.7 µM (inactive)
same,GI50,[38],45.6 µM (inactive)
same,GI50,[39],25.7 µM (inactive)
same,GI50,[40],18.2 µM (inactive)
same,GI50,[41],20.2 µM (inactive)
same,GI50,[42],17.5 µM (inactive)
same,GI50,[43],71 µM (inactive)
same,GI50,[57],35.7 µM (inactive)
same,GI50,[44],> 100 µM (inactive)
same,GI50,[45],36.1 µM (inactive)
same,GI50,[46],72.9 µM (inactive)
same,GI50,[47],65.5 µM (inactive)
same,GI50,[49],28.4 µM (inactive)
same,GI50,[50],46.7 µM (inactive)
same,GI50,[51],36.6 µM (inactive)
same,GI50,[52],32.2 µM (inactive)
same,GI50,[53],31.7 µM (inactive)
C=CCc1c(O)c2nsnc2c2nsnc12,GI50,[1],> 10 µM (inactive)
same,GI50,[2],> 10 µM (inactive)
same,GI50,[3],> 10 µM (inactive)
same,GI50,[4],> 10 µM (inactive)
same,GI50,[5],> 10 µM (inactive)
same,GI50,[58],> 10 µM (inactive)
same,GI50,[6],> 10 µM (inactive)
same,GI50,[7],> 10 µM (inactive)
same,GI50,[8],> 10 µM (inactive)
same,GI50,[11],> 10 µM (inactive)
same,GI50,[12],> 10 µM
same,GI50,[13],> 10 µM (inactive)
same,GI50,[14],> 10 µM (inactive)
same,GI50,[15],> 10 µM (inactive)
same,GI50,[16],> 10 µM (inactive)
same,GI50,[17],> 10 µM (inactive)
same,GI50,[20],> 10 µM (inactive)
same,GI50,[21],> 10 µM (inactive)
same,GI50,[22],> 10 µM (inactive)
same,GI50,[23],> 10 µM (inactive)
same,GI50,[24],> 10 µM (inactive)
same,GI50,[25],> 10 µM (inactive)
same,GI50,[55],> 10 µM (inactive)
same,GI50,[26],> 10 µM (inactive)
same,GI50,[28],> 10 µM (inactive)
same,GI50,[31],> 10 µM (inactive)
same,GI50,[33],> 10 µM (inactive)
same,GI50,[56],> 10 µM (inactive)
same,GI50,[35],> 10 µM (inactive)
same,GI50,[36],> 10 µM (inactive)
same,GI50,[37],> 10 µM (inactive)
same,GI50,[38],> 10 µM (inactive)
same,GI50,[40],> 10 µM (inactive)
same,GI50,[42],> 10 µM (inactive)
same,GI50,[43],> 10 µM (inactive)
same,GI50,[57],> 10 µM (inactive)
same,GI50,[46],> 10 µM (inactive)
same,GI50,[50],> 10 µM (inactive)
same,GI50,[51],> 10 µM (inactive)
same,GI50,[52],> 10 µM (inactive)
COc1ccc(C(CC(=O)c2cccs2)C(=O)c2ccc3c(c2)OCO3)cc1 (stereo unspecified),GI50,[1],> 100 µM (inactive)
same,GI50,[2],> 100 µM (inactive)
same,GI50,[3],> 100 µM (inactive)
same,GI50,[4],> 100 µM (inactive)
same,GI50,[5],59.8 µM (inactive)
same,GI50,[6],> 100 µM (inactive)
same,GI50,[7],> 100 µM (inactive)
same,GI50,[8],> 100 µM (inactive)
same,GI50,[9],> 100 µM (inactive)
same,GI50,[11],> 100 µM (inactive)
same,GI50,[12],> 100 µM
same,GI50,[13],> 100 µM (inactive)
same,GI50,[14],> 100 µM (inactive)
same,GI50,[15],> 100 µM (inactive)
same,GI50,[16],> 100 µM (inactive)
same,GI50,[17],> 100 µM (inactive)
same,GI50,[18],> 100 µM (inactive)
same,GI50,[20],> 100 µM (inactive)
same,GI50,[21],> 100 µM (inactive)
same,GI50,[22],> 100 µM (inactive)
same,GI50,[23],> 100 µM (inactive)
same,GI50,[24],> 100 µM (inactive)
same,GI50,[55],> 100 µM (inactive)
same,GI50,[26],> 100 µM (inactive)
same,GI50,[27],> 100 µM (inactive)
same,GI50,[28],> 100 µM (inactive)
same,GI50,[30],> 100 µM (inactive)
same,GI50,[31],> 100 µM (inactive)
same,GI50,[33],> 100 µM (inactive)
same,GI50,[34],72.1 µM (inactive)
same,GI50,[56],> 100 µM (inactive)
same,GI50,[35],69.5 µM (inactive)
same,GI50,[36],> 100 µM (inactive)
same,GI50,[37],> 100 µM (inactive)
same,GI50,[38],> 100 µM (inactive)
same,GI50,[39],> 100 µM (inactive)
same,GI50,[40],97.7 µM (inactive)
same,GI50,[41],> 100 µM (inactive)
same,GI50,[43],> 100 µM (inactive)
same,GI50,[57],> 100 µM (inactive)
same,GI50,[46],> 100 µM (inactive)
same,GI50,[48],> 100 µM (inactive)
same,GI50,[49],> 100 µM (inactive)
same,GI50,[51],> 100 µM (inactive)
same,GI50,[53],> 100 µM (inactive)
